The target in experiment [1] is Muscarinic acetylcholine receptor. The experiment in a line: Binding affinity to muscarinic acetylcholine receptor was determined in presence of [3H]OXO-M radioligand (in vitro). In kind it is protein assay.
The subject of experiment [2] is Mus musculus. The experiment can be described thus: ED50 value as cholinergic agonism by measuring lacrimation in mice (in vivo). In kind it is functional.
In experiment [3] the test system is Mus musculus. The experiment can be described thus: ED50 value determined as oxotremorine antagonism by measuring lacrimation in mice (in vivo). In kind it is functional.
The subject of experiment [4] is Mus musculus. The experiment in a line: ED50 value as cholinergic agonist by measuring salivation in mice (in vivo). It is filed as functional.
Experiment [5] addresses Muscarinic acetylcholine receptor. The experiment can be described thus: Binding affinity to muscarinic acetylcholine receptor was determined in presence of [3H]QNB radioligand (in vitro). In kind it is protein assay.
The target in experiment [6] is Muscarinic acetylcholine receptor (Rattus norvegicus) (UniProt P08482+P08483+P08485+P08911+P10980). The experiment in a line: Ratio of Ki value for QNB to that of Ki value for Oxo-M. It is filed as protein assay.
In experiment [7] the test system is Mus musculus. The experiment can be described thus: ED50 value determined as oxotremorine antagonism by measuring tremors in mice (in vivo). In kind it is functional.
Experiment [8] concerns Mus musculus. The experiment in a line: ED50 value determined as oxotremorine antagonism by measuring salivation in mice (in vivo). In kind it is functional.
Experiment [9] deals with Mus musculus. The experiment in a line: ED50 value as cholinergic agonist by measuring tremors in mice (in vivo). It is filed as functional.

Where only a bound is given, the exact number is not on record here.

Usually Ki stands for a measure of affinity in units of concentration, obtained from inhibition or displacement. What is called ED50 is the dose that gives a 50% effect, or the effect in half of the subjects. The low end stands for greater potency, the high end for weaker potency.

`CC(=O)N(C)CC#CCN1CCCC1`: the values for the Ki in experiment [1] and in [5] were 0.92 nM and 260 nM, respectively. Besides, the ED50 was 0.55 mg/kg in the experiment on Mus musculus [2]; over 10 mg/kg in the experiment on Mus musculus [3]; 0.55 mg/kg in the experiment with Mus musculus [4]; over 10 mg/kg with Mus musculus [7]; over 10 mg/kg in the experiment on Mus musculus [8]; 0.3 mg/kg in the experiment with Mus musculus [9]. Further, in experiment [6], the Ki ratio was found to be 283.
Turning to `O=C1OCCN1CC#CCN1CCCC1`, the Ki in experiment [1] came out at 8.9 nM; in [5], 1362 nM. Besides, the ED50 in the experiment on Mus musculus [2] was over 10 mg/kg; with Mus musculus [3], over 10 mg/kg; in the experiment with Mus musculus [4] it was 5.4 mg/kg; in the experiment on Mus musculus [7] it was over 10 mg/kg; with Mus musculus [8], over 10 mg/kg; with Mus musculus [9], 3.7 mg/kg. In addition, in experiment [6], the Ki ratio worked out at 153.
Regarding `CCOC(=O)N(C)CC#CCn1cncc1C`, the Ki was 156 nM in experiment [1] and 568 nM in experiment [5]. For the same compound, the ED50 was over 100 mg/kg in the experiment with Mus musculus [2]; 66 mg/kg in the experiment with Mus musculus [3]; over 100 mg/kg in the experiment on Mus musculus [4]; 30 mg/kg in the experiment on Mus musculus [7]; 66 mg/kg with Mus musculus [8]; 97 mg/kg with Mus musculus [9]. Further, the Ki ratio in [6] was 3.6.
Turning to `CCOC(=O)N(C)C(C)C#CCn1cncc1C` (centres undefined), the figures for the Ki in experiment [1] and in experiment [5] were 156 nM and 568 nM, respectively. Besides, the ED50 is over 100 mg/kg in the experiment with Mus musculus [2]; 9.7 mg/kg in the experiment on Mus musculus [3]; over 100 mg/kg in the experiment with Mus musculus [4]; 30 mg/kg with Mus musculus [7]; 17.3 mg/kg with Mus musculus [8]; over 100 mg/kg in the experiment with Mus musculus [9]. In addition, the Ki ratio in [6] was found to be 3.6.
Take `CC1CCC(=O)N1CC#CCN(C)C` (centres undefined): the Ki in experiment [1] stood at 7.1 nM; in experiment [5], 690 nM. For the same compound, the ED50 with Mus musculus [2] is 3.7 mg/kg; with Mus musculus [3], over 100 mg/kg; in the experiment on Mus musculus [4], 3 mg/kg; in the experiment with Mus musculus [7] it was over 100 mg/kg; with Mus musculus [8], over 100 mg/kg; in the experiment with Mus musculus [9], 1.7 mg/kg. In experiment [6], the Ki ratio worked out at 97.
Regarding `COC(=O)NCC#CCn1cncc1C`, the Ki worked out at 191 nM in experiment [1] and 6825 nM in experiment [5]. The ED50 was over 100 mg/kg in the experiment with Mus musculus [2]; 66 mg/kg in the experiment on Mus musculus [3]; over 100 mg/kg in the experiment with Mus musculus [4]; over 100 mg/kg in the experiment with Mus musculus [7]; 80 mg/kg in the experiment with Mus musculus [8]; over 100 mg/kg in the experiment with Mus musculus [9]. Besides, the Ki ratio in experiment [6] turned out to be 36.

The record behind these values is ChEMBL document CHEMBL1125599, “Cholinergic activity of acetylenic imidazoles and related compounds” (J Med Chem, 1991).
